Measured values: patent US12441722B2, “Therapeutic agents and methods of treatment” (University of Florida Research Foundation, Incorporated, priority 2020, dated 2025)
pEC50: −log10 of the molar value.

system: MOLT-4; test: Cell viability assay (tetrazolium-based MTS) in MOLT4 cells; settings: Homo sapiens, MOLT-4, MOLT4 acute lymphoblastic leukemia cells, 48 h incubation
Method: Cancer cells from acute lymphoblastic leukemia (MOLT4) were incubated with increasing concentrations of compounds of Examples 1-9 for 48 h. Cell viability was measured by tetrazolium-based MTS assay. 5×10^4 to 1×10^5 suspension cells or 3×10^3 to 5×10^3 adherent cells were seeded and treated in 96-well plates for 48 h. The EC50 values of individual agents were calculated with GraphPad Prism.

Structure (SMILES) | pEC50
Cc1c(-c2ccc(N3CCc4cccc(C(=O)Nc5nc6ccccc6s5)c4C3)nc2C(=O)O)cnn1CC12CC3CC(CC(C3)C1)C2 [A1331852, reference compound] | > 8.00
Cc1c(-c2ccc(N3CCc4cccc(C(=O)Nc5nc6ccccc6s5)c4C3)nc2C(=O)NS(=O)(=O)CCCn2cc(COCCOCCNc3cccc4c3C(=O)N(C3CCC(=O)NC3=O)C4=O)nn2)cnn1CC12CC3CC(CC(C3)C1)C2 (centres unmarked) [degrader #1, 2-(5-(1-(adamantan-1-ylmethyl)-5-methyl-1H-pyrazol-4-yl)-6-(((3-(4-((2-(2-((2-(2,6-dioxopiperidin-3-yl)-1,3-dioxoisoindolin-4-yl)amino)ethoxy)ethoxy)methyl)-1H-1,2,3-triazol-1-yl)propyl)sulfonyl)carbamoyl)pyridin-2-yl)-N-(benzo[d]thiazol-2-yl)-1,2,3,4-tetrahydroisoquinoline-8-carboxamide] | 7.00 to 8.00
Cc1c(-c2ccc(N3CCc4cccc(C(=O)Nc5nc6ccccc6s5)c4C3)nc2C(=O)NS(=O)(=O)CCCn2cc(COCCOCCNc3cccc4c3C(=O)N(C3CCC(=O)NC3=O)C4=O)nn2)cc(C#N)n1CC12CC3CC(CC(C3)C1)C2 (centres unmarked) [degrader #2, 2-(5-(1-(adamantan-1-ylmethyl)-5-cyano-2-methyl-1H-pyrrol-3-yl)-6-(((3-(4-((2-(2-((2-(2,6-dioxopiperidin-3-yl)-1,3-dioxoisoindolin-4-yl)amino)ethoxy)ethoxy)methyl)-1H-1,2,3-triazol-1-yl)propyl)sulfonyl)carbamoyl)pyridin-2-yl)-N-(benzo[d]thiazol-2-yl)-1,2,3,4-tetrahydroisoquinoline-8-carboxamide] | 7.00 to 8.00
Cc1c(-c2ccc(N3CCc4cccc(C(=O)Nc5nc6ccccc6s5)c4C3)nc2C(=O)NCCCCNc2cccc3c2C(=O)N(C2CCC(=O)NC2=O)C3=O)cnn1CC12CC3CC(CC(C3)C1)C2 (centres unmarked) [degrader #3, 2-(5-(1-(adamantan-1-ylmethyl)-5-methyl-1H-pyrazol-4-yl)-6-((4-((2-(2,6-dioxopiperidin-3-yl)-1,3-dioxoisoindolin-4-yl)amino)butyl)carbamoyl)pyridin-2-yl)-N-(benzo[d]thiazol-2-yl)-1,2,3,4-tetrahydroisoquinoline-8-carboxamide] | 6.00 to 7.00
Cc1c(-c2ccc(N3CCc4cccc(C(=O)Nc5nc6ccccc6s5)c4C3)nc2C(=O)NCCCCCCNc2cccc3c2C(=O)N(C2CCC(=O)NC2=O)C3=O)cnn1CC12CC3CC(CC(C3)C1)C2 (centres unmarked) [degrader #4, 2-(5-(1-(adamantan-1-ylmethyl)-5-methyl-1H-pyrazol-4-yl)-6-((6-((2-(2,6-dioxopiperidin-3-yl)-1,3-dioxoisoindolin-4-yl)amino)hexyl)carbamoyl)pyridin-2-yl)-N-(benzo[d]thiazol-2-yl)-1,2,3,4-tetrahydroisoquinoline-8-carboxamide] | 6.00 to 7.00
Cc1c(-c2ccc(N3CCc4cccc(C(=O)Nc5nc6ccccc6s5)c4C3)nc2C(=O)NCCCCCCCCNc2cccc3c2C(=O)N(C2CCC(=O)NC2=O)C3=O)cnn1CC12CC3CC(CC(C3)C1)C2 (centres unmarked) [degrader #5, 2-(5-(1-(adamantan-1-ylmethyl)-5-methyl-1H-pyrazol-4-yl)-6-((8-((2-(2,6-dioxopiperidin-3-yl)-1,3-dioxoisoindolin-4-yl)amino)octyl)carbamoyl)pyridin-2-yl)-N-(benzo[d]thiazol-2-yl)-1,2,3,4-tetrahydroisoquinoline-8-carboxamide] | 6.00 to 7.00
Cc1c(-c2ccc(N3CCc4cccc(C(=O)Nc5nc6ccccc6s5)c4C3)nc2C(=O)NCCOCCNc2cccc3c2C(=O)N(C2CCC(=O)NC2=O)C3=O)cnn1CC12CC3CC(CC(C3)C1)C2 (centres unmarked) [degrader #6, 2-(5-(1-(adamantan-1-ylmethyl)-5-methyl-1H-pyrazol-4-yl)-6-((2-(2-((2-(2,6-dioxopiperidin-3-yl)-1,3-dioxoisoindolin-4-yl)amino)ethoxy)ethyl)carbamoyl)pyridin-2-yl)-N-(benzo[d]thiazol-2-yl)-1,2,3,4-tetrahydroisoquinoline-8-carboxamide] | 7.00 to 8.00
Cc1c(-c2ccc(N3CCc4cccc(C(=O)Nc5nc6ccccc6s5)c4C3)nc2C(=O)NCCOCCOCCNc2cccc3c2C(=O)N(C2CCC(=O)NC2=O)C3=O)cnn1CC12CC3CC(CC(C3)C1)C2 (centres unmarked) [degrader #7, 2-(5-(1-(adamantan-1-ylmethyl)-5-methyl-1H-pyrazol-4-yl)-6-((2-(2-(2-((2-(2,6-dioxopiperidin-3-yl)-1,3-dioxoisoindolin-4-yl)amino)ethoxy)ethoxy)ethyl)carbamoyl)pyridin-2-yl)-N-(benzo[d]thiazol-2-yl)-1,2,3,4-tetrahydroisoquinoline-8-carboxamide] | 7.00 to 8.00

Other lines, results leading:

pEC50 | Structure (SMILES)
> 8.00 | Cc1ncsc1-c1ccc([C@H](C)NC(=O)[C@@H]2C[C@@H](O)CN2C(=O)[C@@H](NC(=O)CCCS(=O)(=O)NC(=O)c2nc(N3CCc4cccc(C(=O)Nc5nc6ccccc6s5)c4C3)ccc2-c2cnn(CC34CC5CC(CC(C5)C3)C4)c2C)C(C)(C)C)cc1 [degrader #9, 2-(5-(1-(adamantan-1-ylmethyl)-5-methyl-1H-pyrazol-4-yl)-6-(((4-(((S)-1-((2S,4R)-4-hydroxy-2-(((S)-1-(4-(4-methylthiazol-5-yl)phenyl)ethyl)carbamoyl)pyrrolidin-1-yl)-3,3-dimethyl-1-oxobutan-2-yl)amino)-4-oxobutyl)sulfonyl)carbamoyl)pyridin-2-yl)-N-(benzo[d]thiazol-2-yl)-1,2,3,4-tetrahydroisoquinoline-8-carboxamide]
> 8.00 | Cc1ncsc1-c1ccc([C@H](C)NC(=O)[C@@H]2C[C@@H](O)CN2C(=O)[C@@H](NC(=O)CCCCS(=O)(=O)NC(=O)c2nc(N3CCc4cccc(C(=O)Nc5nc6ccccc6s5)c4C3)ccc2-c2cnn(CC34CC5CC(CC(C5)C3)C4)c2C)C(C)(C)C)cc1 [degrader #10, 2-(5-(1-(adamantan-1-ylmethyl)-5-methyl-1H-pyrazol-4-yl)-6-(((5-(((S)-1-((2S,4R)-4-hydroxy-2-(((S)-1-(4-(4-methylthiazol-5-yl)phenyl)ethyl)carbamoyl)pyrrolidin-1-yl)-3,3-dimethyl-1-oxobutan-2-yl)amino)-5-oxopentyl)sulfonyl)carbamoyl)pyridin-2-yl)-N-(benzo[d]thiazol-2-yl)-1,2,3,4-tetrahydroisoquinoline-8-carboxamide]
> 8.00 | Cc1ncsc1-c1ccc([C@H](C)NC(=O)[C@@H]2C[C@@H](O)CN2C(=O)[C@@H](NC(=O)CCCCCS(=O)(=O)NC(=O)c2nc(N3CCc4cccc(C(=O)Nc5nc6ccccc6s5)c4C3)ccc2-c2cnn(CC34CC5CC(CC(C5)C3)C4)c2C)C(C)(C)C)cc1 [degrader #11, 2-(5-(1-(adamantan-1-ylmethyl)-5-methyl-1H-pyrazol-4-yl)-6-(((6-(((S)-1-((2S,4R)-4-hydroxy-2-(((S)-1-(4-(4-methylthiazol-5-yl)phenyl)ethyl)carbamoyl)pyrrolidin-1-yl)-3,3-dimethyl-1-oxobutan-2-yl)amino)-6-oxohexyl)sulfonyl)carbamoyl)pyridin-2-yl)-N-(benzo[d]thiazol-2-yl)-1,2,3,4-tetrahydroisoquinoline-8-carboxamide]
> 8.00 | Cc1ncsc1-c1ccc([C@H](C)NC(=O)[C@@H]2C[C@@H](O)CN2C(=O)[C@@H](NC(=O)CCCCCCCS(=O)(=O)NC(=O)c2nc(N3CCc4cccc(C(=O)Nc5nc6ccccc6s5)c4C3)ccc2-c2cnn(CC34CC5CC(CC(C5)C3)C4)c2C)C(C)(C)C)cc1 [degrader #13, 2-(5-(1-(adamantan-1-ylmethyl)-5-methyl-1H-pyrazol-4-yl)-6-(((8-(((S)-1-((2S,4R)-4-hydroxy-2-(((S)-1-(4-(4-methylthiazol-5-yl)phenyl)ethyl)carbamoyl)pyrrolidin-1-yl)-3,3-dimethyl-1-oxobutan-2-yl)amino)-8-oxooctyl)sulfonyl)carbamoyl)pyridin-2-yl)-N-(benzo[d]thiazol-2-yl)-1,2,3,4-tetrahydroisoquinoline-8-carboxamide]
> 8.00 | Cc1ncsc1-c1ccc([C@H](C)NC(=O)[C@@H]2C[C@@H](O)CN2C(=O)[C@@H](NC(=O)CCCCCCCCS(=O)(=O)NC(=O)c2nc(N3CCc4cccc(C(=O)Nc5nc6ccccc6s5)c4C3)ccc2-c2cnn(CC34CC5CC(CC(C5)C3)C4)c2C)C(C)(C)C)cc1 [degrader #14, 2-(5-(1-(adamantan-1-ylmethyl)-5-methyl-1H-pyrazol-4-yl)-6-(((9-(((S)-1-((2S,4R)-4-hydroxy-2-(((S)-1-(4-(4-methylthiazol-5-yl)phenyl)ethyl)carbamoyl)pyrrolidin-1-yl)-3,3-dimethyl-1-oxobutan-2-yl)amino)-9-oxononyl)sulfonyl)carbamoyl)pyridin-2-yl)-N-(benzo[d]thiazol-2-yl)-1,2,3,4-tetrahydroisoquinoline-8-carboxamide]

same assay, conditions: MOLT4 acute lymphoblastic leukemia cells, 48 h incubation

pEC50 | Structure (SMILES)
> 8.00 | Cc1ncsc1-c1ccc([C@H](C)NC(=O)[C@@H]2C[C@@H](O)CN2C(=O)[C@@H](NC(=O)CCCCCCS(=O)(=O)NC(=O)c2nc(N3CCc4cccc(C(=O)Nc5nc6ccccc6s5)c4C3)ccc2-c2cnn(CC34CC5CC(CC(C5)C3)C4)c2C)C(C)(C)C)cc1 [degrader #12, 2-(5-(1-(adamantan-1-ylmethyl)-5-methvl-1H-pyrazol-4-yl)-6-(((7-(((S)-1-((2S,4R)-4-hydroxy-2-(((S)-1-(4-(4-methylthiazol-5-yl)phenyl)ethyl)carbamoyl)pyrrolidin-1-yl)-3,3-dimethyl-1-oxobutan-2-yl)amino)-7-oxoheptyl)sulfonyl)carbamol)pyridin-2-yl)-N-(benzo[d]thiazol-2-yl)-1,2,3,4-tetrahydroisoquinoline-8-carboxamide]
